From patent US12441726B2, “Compounds and uses thereof” (Foghorn Therapeutics Inc., priority 2020, dated 2025)

Legend:
BRM = BRM (Homo sapiens, UniProt P51531); assay: ATPase catalytic activity assay (ADP-Glo), BRM; settings: 30 nM BRM, 400 μM ATP; for IC50: BRM ATPase: IC50 (uM)
BRG-1 = BRG-1 (Homo sapiens, UniProt P51532); assay: ATPase catalytic activity assay (ADP-Glo), BRG-1; settings: for Emax: 1 h, read-out: BRG1 Max % Inhibition, ADP-Glo, 30 nM BRG-1, 400 μM ATP
Sequence of BRG-1 (P51532 whole entry): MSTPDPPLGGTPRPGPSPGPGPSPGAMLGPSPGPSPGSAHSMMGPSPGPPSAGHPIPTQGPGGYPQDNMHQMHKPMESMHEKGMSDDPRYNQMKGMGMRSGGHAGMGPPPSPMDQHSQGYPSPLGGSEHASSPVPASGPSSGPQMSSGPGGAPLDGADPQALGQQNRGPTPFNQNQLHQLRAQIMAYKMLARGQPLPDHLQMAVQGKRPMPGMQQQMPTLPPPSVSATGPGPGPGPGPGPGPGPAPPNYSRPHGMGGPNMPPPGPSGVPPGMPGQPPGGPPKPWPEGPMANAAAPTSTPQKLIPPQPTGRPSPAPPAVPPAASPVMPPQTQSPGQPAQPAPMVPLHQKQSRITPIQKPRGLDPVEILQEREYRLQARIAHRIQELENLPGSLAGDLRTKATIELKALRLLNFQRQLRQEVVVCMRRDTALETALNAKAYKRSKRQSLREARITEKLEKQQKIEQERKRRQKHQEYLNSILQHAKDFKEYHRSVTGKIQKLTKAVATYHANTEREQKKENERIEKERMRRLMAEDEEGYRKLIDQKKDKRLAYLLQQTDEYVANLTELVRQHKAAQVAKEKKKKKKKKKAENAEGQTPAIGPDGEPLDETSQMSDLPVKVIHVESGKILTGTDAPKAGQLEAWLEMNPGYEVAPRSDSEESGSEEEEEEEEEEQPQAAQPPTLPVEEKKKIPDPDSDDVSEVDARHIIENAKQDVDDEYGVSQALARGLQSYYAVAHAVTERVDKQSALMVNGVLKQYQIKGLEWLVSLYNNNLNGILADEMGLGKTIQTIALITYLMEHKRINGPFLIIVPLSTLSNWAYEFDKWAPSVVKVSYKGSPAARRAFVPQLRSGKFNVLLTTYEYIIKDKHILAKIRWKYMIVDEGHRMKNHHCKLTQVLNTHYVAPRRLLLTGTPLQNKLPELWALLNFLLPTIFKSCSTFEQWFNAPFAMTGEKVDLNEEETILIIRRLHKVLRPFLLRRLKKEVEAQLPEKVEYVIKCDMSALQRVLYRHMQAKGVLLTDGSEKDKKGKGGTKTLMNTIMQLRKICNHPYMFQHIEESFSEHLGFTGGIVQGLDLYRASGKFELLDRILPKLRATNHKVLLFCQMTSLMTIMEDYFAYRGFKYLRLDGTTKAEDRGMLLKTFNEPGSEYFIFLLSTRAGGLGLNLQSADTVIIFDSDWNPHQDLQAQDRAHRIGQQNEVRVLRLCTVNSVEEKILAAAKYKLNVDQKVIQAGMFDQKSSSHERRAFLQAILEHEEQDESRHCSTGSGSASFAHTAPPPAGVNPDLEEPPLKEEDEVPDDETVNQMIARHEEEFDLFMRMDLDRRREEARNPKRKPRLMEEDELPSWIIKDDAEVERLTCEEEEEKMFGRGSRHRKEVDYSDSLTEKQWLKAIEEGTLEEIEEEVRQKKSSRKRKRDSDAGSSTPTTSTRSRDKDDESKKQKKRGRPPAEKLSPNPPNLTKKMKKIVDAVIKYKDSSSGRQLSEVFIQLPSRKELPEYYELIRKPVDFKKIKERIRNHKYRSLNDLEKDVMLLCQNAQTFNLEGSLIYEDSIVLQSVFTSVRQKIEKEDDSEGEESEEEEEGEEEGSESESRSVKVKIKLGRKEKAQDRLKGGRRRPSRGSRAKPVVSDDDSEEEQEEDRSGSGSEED

Sequence of BRM (P51531 whole entry): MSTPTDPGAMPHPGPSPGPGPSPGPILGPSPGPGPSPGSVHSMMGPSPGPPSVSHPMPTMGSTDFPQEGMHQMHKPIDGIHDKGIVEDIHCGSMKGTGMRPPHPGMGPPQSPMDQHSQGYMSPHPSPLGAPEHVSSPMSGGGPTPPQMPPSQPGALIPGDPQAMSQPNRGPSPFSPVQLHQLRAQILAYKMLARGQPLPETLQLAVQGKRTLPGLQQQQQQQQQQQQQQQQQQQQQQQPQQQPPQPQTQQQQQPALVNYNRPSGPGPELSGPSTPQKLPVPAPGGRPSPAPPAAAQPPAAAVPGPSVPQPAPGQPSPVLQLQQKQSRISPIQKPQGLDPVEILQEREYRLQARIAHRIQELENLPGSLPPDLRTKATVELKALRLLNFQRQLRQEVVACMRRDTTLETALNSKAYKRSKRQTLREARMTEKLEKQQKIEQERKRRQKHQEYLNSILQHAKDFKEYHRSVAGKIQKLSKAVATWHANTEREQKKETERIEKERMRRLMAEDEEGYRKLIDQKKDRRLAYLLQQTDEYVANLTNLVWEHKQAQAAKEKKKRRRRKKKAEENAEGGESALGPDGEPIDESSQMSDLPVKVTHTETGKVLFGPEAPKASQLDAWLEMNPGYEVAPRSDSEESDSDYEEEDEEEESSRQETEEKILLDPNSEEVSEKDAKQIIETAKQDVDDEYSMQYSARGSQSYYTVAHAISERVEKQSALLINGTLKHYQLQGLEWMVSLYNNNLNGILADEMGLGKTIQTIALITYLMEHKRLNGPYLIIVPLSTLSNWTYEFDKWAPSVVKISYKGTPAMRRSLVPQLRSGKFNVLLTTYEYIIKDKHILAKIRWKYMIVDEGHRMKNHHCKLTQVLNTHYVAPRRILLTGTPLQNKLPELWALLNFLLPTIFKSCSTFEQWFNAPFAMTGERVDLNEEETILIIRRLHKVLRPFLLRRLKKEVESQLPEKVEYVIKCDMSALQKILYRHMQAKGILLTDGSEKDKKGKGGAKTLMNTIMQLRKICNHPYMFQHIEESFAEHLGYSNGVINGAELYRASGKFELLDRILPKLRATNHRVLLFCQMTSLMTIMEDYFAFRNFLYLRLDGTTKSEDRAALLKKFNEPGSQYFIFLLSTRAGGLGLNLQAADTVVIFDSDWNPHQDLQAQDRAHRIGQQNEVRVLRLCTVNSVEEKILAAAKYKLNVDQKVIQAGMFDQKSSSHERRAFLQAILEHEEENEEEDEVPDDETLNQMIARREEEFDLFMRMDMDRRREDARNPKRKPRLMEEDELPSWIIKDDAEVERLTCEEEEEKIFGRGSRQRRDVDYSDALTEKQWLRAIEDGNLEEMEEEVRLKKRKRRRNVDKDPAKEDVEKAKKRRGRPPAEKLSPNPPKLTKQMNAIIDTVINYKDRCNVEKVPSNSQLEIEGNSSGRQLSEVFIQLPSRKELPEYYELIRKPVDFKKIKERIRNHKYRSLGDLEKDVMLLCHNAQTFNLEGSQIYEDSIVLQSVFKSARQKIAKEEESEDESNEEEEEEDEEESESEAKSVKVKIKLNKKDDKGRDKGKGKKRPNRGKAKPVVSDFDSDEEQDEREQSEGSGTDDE

| Compound | BRM Max % Inhibition (BRM) [%] | IC50 (BRM) [µM] | IC50 (BRG-1) [µM] | Emax (BRG-1) [%] |
| --- | --- | --- | --- | --- |
| C[C@@]1(C#N)COCc2ccc(C(=O)NCc3cc4nc(-c5cncc(N6CC[C@H](F)C6)n5)ccc4cn3)cc21 [Compound 311] | 99 | < 0.1 | 0.1 to 0.5 | 95 |
| C[C@@]1(C#N)COCc2ccc(C(=O)NCc3cc4nc(N5CCN(C6CC6)C5=O)ccc4cn3)cc21 [Compound 312] | 83 | 0.1 to 0.5 | > 1 | 46 |
| C[C@@]1(C#N)COCc2ccc(C(=O)NCc3cc4nc(N5CCN(C6CCC6)C5=O)ccc4cn3)cc21 [Compound 313] | 92 | 0.1 to 0.5 | 0.5 to 1 | 72 |
| C[C@@]1(C#N)COCc2ccc(C(=O)NCc3cc4c(cn3)CCN(c3cncc(N5CCOCC5)n3)C4)cc21 [Compound 314] | 96 | < 0.1 | 0.1 to 0.5 | 83 |
| C[C@@]1(C#N)COCc2ccc(C(=O)NCc3cc4nc(N5CCCN(C6CC6)C5=O)ccc4cn3)cc21 [Compound 315] | 81 | 0.1 to 0.5 | > 1 | 33 |
| COCCOCCNC(=O)c1cccc(-c2ccc3cnc(CNC(=O)c4ccc5c(c4)[C@](C)(C#N)COC5)cc3n2)c1 [Compound 316] | 98 | 0.1 to 0.5 | > 1 | 92 |
| CN1CCC(NC(=O)c2cccc(-c3ccc4cnc(CNC(=O)c5ccc6c(c5)[C@](C)(C#N)COC6)cc4n3)c2)CC1 [Compound 317] | 100 | 0.1 to 0.5 | > 1 | 96 |
| C[C@@]1(F)COCc2ccc(C(=O)NCc3cc4nc(-c5ccc(=O)n(CC(F)F)n5)ccc4cn3)cc21 [Compound 318] | 107 | 0.1 to 0.5 | 0.5 to 1 | 55 |
| C[C@@]1(F)COCc2ccc(C(=O)NCc3cc4nc(-c5cncc(N6CCOCC6)n5)ccc4cn3)cc21 [Compound 319] | 104 | < 0.1 | 0.1 to 0.5 | 92 |
| CC(=O)N1CCOc2c(-c3ccc4cnc(CNC(=O)c5ccc6c(c5)[C@](C)(C#N)COC6)cc4n3)cccc21 [Compound 320] | 107 | 0.1 to 0.5 | 0.5 to 1 | 80 |
| C[C@@]1(C#N)COCc2ccc(C(=O)NCc3cc4nc(-c5ccnc(N6CC7CC7C6)n5)ccc4cn3)cc21 (stereo partly shown) [Compound 321] | 105 | < 0.1 | 0.1 to 0.5 | 95 |
| C[C@H]1CN(c2nccc(-c3ccc4cnc(CNC(=O)c5ccc6c(c5)[C@](C)(C#N)COC6)cc4n3)n2)CCO1 [Compound 322] | 106 | < 0.1 | < 0.1 | 97 |
| COCCNC(=O)c1ccc(-c2ccc3cnc(CNC(=O)c4ccc5c(c4)[C@](C)(C#N)COC5)cc3n2)cc1 [Compound 323] | 108 | 0.1 to 0.5 | 0.5 to 1 | 76 |
| CNC(=O)c1ccc(-c2ccc3cnc(CNC(=O)c4ccc5c(c4)[C@](C)(C#N)COC5)cc3n2)cc1 [Compound 324] | 105 | 0.1 to 0.5 | 0.5 to 1 | 81 |
| C[C@@]1(F)COCc2ccc(C(=O)NCc3cc4nc(-c5cncc(C6CC6)n5)ccc4cn3)cc21 [Compound 325] | 101 | < 0.1 | 0.1 to 0.5 | 90 |
| CN(C)c1nccc(N2CCc3cnc(CNC(=O)c4ccc5c(c4)[C@](C)(C#N)COC5)cc3C2)n1 [Compound 326] | 97 | 0.1 to 0.5 | 0.5 to 1 | 70 |

| Compound | BRM Max % Inhibition (BRM) [%] | IC50 (BRM) [µM] | IC50 (BRG-1) [µM] | Emax (BRG-1) [%] |
| --- | --- | --- | --- | --- |
| C[C@@]1(C#N)COCc2ccc(C(=O)NCc3cc4c(cn3)CCN(c3ccnc(C5CC5)n3)C4)cc21 [Compound 327] | 89 | 0.1 to 0.5 | > 1 | 48 |
| C[C@@]1(C#N)COCc2ccc(C(=O)NCc3cc4c(cn3)CCN(c3cncc(C5CC5)n3)C4)cc21 [Compound 328] | 99 | < 0.1 | 0.5 to 1 | 81 |
| COc1nn(C)cc1-c1ccc2nnc(CNC(=O)c3ccc4c(c3)[C@](C)(C#N)COC4)cc2c1 [Compound 329] | 100 | < 0.1 | 0.1 to 0.5 | 86 |
| C[C@@]1(C#N)COCc2ccc(C(=O)NCc3cc4c(cn3)CCN(c3ccnc(N5CCOCC5)n3)C4)cc21 [Compound 330] | 93 | 0.1 to 0.5 | 0.5 to 1 | 64 |
| C[C@@]1(C#N)COCc2ccc(C(=O)NCc3cc4c(cn3)CCN(c3ccnc(N5CCCC5)n3)C4)cc21 [Compound 331] | 97 | 0.1 to 0.5 | 0.5 to 1 | 73 |
| C[C@@]1(C#N)COCc2ccc(C(=O)NCc3cc4c(cn3)CCN(c3ccnc(N5CCC5)n3)C4)cc21 [Compound 332] | 96 | 0.1 to 0.5 | 0.5 to 1 | 67 |
| COc1nn(C)cc1-c1ccc2cnc(CNC(=O)c3cc(F)c4c(c3)[C@](C)(F)COC4)cc2n1 [Compound 333] | 100 | < 0.1 | 0.5 to 1 | 79 |
| COc1nn(C)cc1-c1ccc2cnc(CNC(=O)c3cnc4c(c3)[C@](C)(F)COC4)cc2n1 [Compound 334] | 96 | 0.1 to 0.5 | 0.5 to 1 | 61 |
| C[C@@]1(C#N)COCc2ccc(C(=O)NCc3cc4cc(-c5nccc(N6CCC6)n5)ccc4nn3)cc21 [Compound 335] | 101 | < 0.1 | 0.1 to 0.5 | 84 |
| C[C@@]1(C#N)COCc2ccc(C(=O)NCc3cc4cc(-c5ccnc(N6CCC6)n5)ccc4nn3)cc21 [Compound 336] | 99 | < 0.1 | 0.1 to 0.5 | 92 |
| C[C@@]1(C#N)COCc2ccc(C(=O)NCc3cc4cc(-c5ccnc(C6CC6)n5)cnc4cn3)cc21 [Compound 337] | 99 | 0.1 to 0.5 | 0.5 to 1 | 63 |
| COc1nn(C)cc1-c1cnc2cnc(CNC(=O)c3ccc4c(c3)[C@](C)(F)COC4)cc2c1 [Compound 338] | 97 | 0.1 to 0.5 | 0.5 to 1 | 56 |
| CO[C@H]1CCN(c2nccc(-c3ccc4cnc(CNC(=O)c5ccc6c(c5)[C@](C)(C#N)COC6)cc4n3)n2)C1 [Compound 339] | 100 | < 0.1 | 0.1 to 0.5 | 95 |
| C[C@@]1(C#N)COCc2ccc(C(=O)NCc3cc4nc(-c5ccnc(N6C[C@@H]7C[C@H]6CO7)n5)ccc4cn3)cc21 [Compound 340] | 99 | < 0.1 | 0.1 to 0.5 | 91 |
| C[C@@]1(C#N)COCc2ccc(C(=O)NCc3cc4nc(-c5ccnc(N6CC[C@H](F)C6)n5)ccc4cn3)cc21 [Compound 341] | 100 | < 0.1 | 0.1 to 0.5 | 93 |
